{
  "source": "patent US20220184220A1",
  "about": "“XYLOGLUCAN-CONTAINING PRODRUGS AND METHODS OF MANUFACTURE AND USE THEREOF” (priority 2019, published 2022)",
  "key": {"[1]": {"system": "acute self-limiting colitis in mice", "assay": "Histological scoring of inflammation, C. rodentium colitis in germ-free mice colonized with B. ovatus (Example 3)", "format": "in vivo", "details": "n=2; for Crypt Height / Epithelia Hyperplasia / Epithelial Injury / Fibrosis / Globlet cell / Inflamm / Mitotic Act.: gavage 3 days, prednisolone forms 1 mg/kg/day, dexamethasone forms 0.6 mg/kg/day; for Total Score: sum of each scoring category"}, "[2]": {"system": "acute self-limiting colitis in mice", "assay": "Gross visual observations of the murine abdomen (Example 3)", "format": "in vivo", "details": "necropsy after 3 days of steroid gavage", "description": "Under isoflurane anesthesia, mice were terminally bled by cardiac puncture and then humanely euthanized by cervical dislocation. All collected blood was separated into serum that was dedicated for steroid detection and optimization of steroid detection procedures. Following euthanasia, a midline laparotomy was made and gross observations of the abdominal regions were photo-documented. Approximately 1 cm sections of the cecum, and the most proximal and distal portions of the colon were divided for histological examination. Cecal and colonic tissues were flash frozen in liquid nitrogen for future immunological protein quantification. Digesta extracted from the colon was stored at −80° C. for future steroid detection, and fresh feces from the cages were used to enumerate Bacteroides ovatus and Citrobacter rodentium by microbiological techniques on the same day as the necropsy."}, "[3]": {"system": "acute self-limiting colitis in mice", "assay": "Histological scoring of inflammation, C. rodentium colitis in mice with normal enteric microbiota (Example 7)", "format": "in vivo", "details": "CR+/BO+ mice; prednisolone forms 1 mg/kg, dexamethasone forms 1.5 mg/kg (equivalent); one day following steroid treatment", "method": "Approval to conduct this project was obtained from the AAFC LeRDC Animal Care Committee (Animal Use Protocol 1911). […] The methods employed were essentially the same as those described in Example 3, except that the Citrobacter rodentium (CR) was administered to incite acute self-limiting colitis in mice prior to colonization with Bacteroides ovatus (BO). […] FIG. 20 provides a schematic illustrating the study design and timelines.\nAs in the study described in Example 3, there were gross histopathological differences in the distal colon tissue obtained from mice in the different treatment groups. Histological scoring of inflammation was performed by a board-certified pathologist blinded to treatment. […] Following CR infection, with no treatment, neutrophil infiltration was evident and the histological score was 10. […] Evidence of enhanced amelioration of protein markers of inflammation were also observed. […] IL-12p70 is a pro-inflammatory cytokine involved in cell-mediated immunity. For example, it is known as a T cell-stimulating factor, which can stimulate the growth and function of T cells. Moreover, it stimulates the production of interferon-gamma (IFN-γ) and tumor necrosis factor-alpha (TNF-α) from T cells and natural killer (NK) cells, and reduces IL-4 mediated suppression of IFN-γ."}, "[4]": {"assay": "Dissolution of steroid in sterile water for gavage", "format": "physicochemical", "details": "dose in 100 μL gavage volume", "method": "The average weight of the mice (27.9 g) was calculated on the second day of the Citrobacter rodentium infection, and this average weight was used to calculate the steroid concentrations for all treatments. The steroids were dissolved as best as possible in sterile water, and stored at 4° C. until needed. Steroids were administered by gavage in […] for 3 consecutive days at the same time each morning (24 hrs between treatments) for the final 3 days of the C. rodentium infection. Mice in the control groups (without drug intervention) received water by gavage in 100 μL volumes. Gavage needles for drug administration were coated in sucrose solution (1 g/mL, syringe-filter sterilized) as a refinement procedure."}},
  "note": "“Also recorded” adds a separate entry of the source.",
  "data": [
    {"smiles": "C[C@]12C=CC(=O)C=C1CC[C@@H]1[C@@H]2[C@@H](O)C[C@@]2(C)[C@H]1CC[C@]2(O)C(=O)CO", "note": "[prednisolone, reference compound]", "values": [
      {"measurement": "Crypt Height", "setting": "[1]; cecal tissue", "result": 1.5},
      {"measurement": "Epithelia Hyperplasia", "setting": "[1]; cecal tissue", "result": 1.5},
      {"measurement": "Epithelial Injury", "setting": "[1]; cecal tissue", "result": 1},
      {"measurement": "Fibrosis", "setting": "[1]; cecal tissue", "result": 1},
      {"measurement": "Globlet cell", "setting": "[1]; cecal tissue", "result": 0.5},
      {"measurement": "Inflamm", "setting": "[1]; cecal tissue", "result": 1.5},
      {"measurement": "Mitotic Act.", "setting": "[1]; cecal tissue", "result": 1},
      {"measurement": "Total Score", "setting": "[1]; cecal tissue", "result": 8},
      {"measurement": "Crypt Height", "setting": "[1]; distal colon", "result": 1.5},
      {"measurement": "Epithelia Hyperplasia", "setting": "[1]; distal colon", "result": 1.5},
      {"measurement": "Epithelial Injury", "setting": "[1]; distal colon", "result": 2},
      {"measurement": "Fibrosis", "setting": "[1]; distal colon", "result": 1.5},
      {"measurement": "Globlet cell", "setting": "[1]; distal colon", "result": 0.5},
      {"measurement": "Inflamm", "setting": "[1]; distal colon", "result": 1.5},
      {"measurement": "Mitotic Act.", "setting": "[1]; distal colon", "result": 1.5},
      {"measurement": "Total Score", "setting": "[1]; distal colon", "result": 10},
      {"measurement": "Crypt Height", "setting": "[1]; proximal colon", "result": 2},
      {"measurement": "Epithelia Hyperplasia", "setting": "[1]; proximal colon", "result": 1.5},
      {"measurement": "Epithelial Injury", "setting": "[1]; proximal colon", "result": 2},
      {"measurement": "Fibrosis", "setting": "[1]; proximal colon", "result": 0},
      {"measurement": "Globlet cell", "setting": "[1]; proximal colon", "result": 0.5},
      {"measurement": "Inflamm", "setting": "[1]; proximal colon", "result": 1.5},
      {"measurement": "Mitotic Act.", "setting": "[1]; proximal colon", "result": 1.5},
      {"measurement": "Total Score", "setting": "[1]; proximal colon", "result": 9},
      {"measurement": "blood present in ceca (gross observation)", "setting": "[2]", "result": "more blood present in ceca than dexamethasone treatment; also recorded: more blood in cecal area"},
      {"measurement": "histological score, distal colon", "setting": "[3]", "result": 18},
      {"measurement": "dissolution in water", "setting": "[4]", "result": "did not fully dissolve in water"}
    ]}
  ]
}
